Our source for the TGI and GI50 values is PubChem BioAssay (NCI).

What all share (experiment): NCI-60 cell line screen, 48 h
Test [1] concerns MDA-MB-231 breast.
The test system of test [2] is NCI-H226 lung.
For test [3], the system named is RXF 393 renal.
The test system of test [4] is BT-549 breast.
Test [5] concerns OVCAR-3 ovarian.
The subject of test [6] is ACHN renal.
Test [7] has as its system MDA-N.
Test [8] deals with IGROV1 ovarian.
The subject of test [9] is SK-MEL-28 melanoma.
Test [10] deals with M19-MEL melanoma.
Test [11] has as its system DMS 273 small cell lung.

Structures are written as SMILES. Values joined by “and” are separate entries in the source; they are usually repeats but may differ in a detail not shown here. Equal entries are not always repeated.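 In this assay, cells in 96-well plates receive the compound at five concentrations for 48 hours. Endpoints are linearly interpolated between the surrounding concentrations. GI50: concentration for 50% inhibition of growth. TGI is the concentration that stops growth completely.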

On to `Clc1ccc(-c2nn3c(COc4cccc(OCc5nnc6sc(-c7ccc(Cl)cc7)nn56)c4)nnc3s2)cc1`, for which the TGI in [1] was > 100 µM; in test [2] it was > 100 µM; in test [3], 77.6 µM; in [4], > 100 µM; in test [5], 44 µM; in test [6], 68.4 µM. The values for the TGI in test [7], in test [8] and in [9] were 36.4 µM, > 100 µM and 35.9 µM, respectively.
For `O=C1c2ccncc2C(=O)c2c(O)ccc(O)c21`, the TGI in [2] came to 29.4 µM; in test [3], 16.8 µM; in test [5] it was 5.81 µM; in test [6], 17.1 µM; in test [8], 25.9 µM; in test [10] it was 9.58 µM. Further, the TGI in test [9] was found to be 26.7 µM.
With `O=C1C(N2CCN(CCOCCO)CC2)=C(Cl)C(=O)c2ncccc21`, the TGI in test [1] is 34.2 µM; in test [2], > 100 µM; in test [3], 35.1 µM; in [4], 8.33 µM; in [5], 32.7 µM; in test [6] it was 33.4 µM. The TGI is 3.76 µM and 35 µM in test [7]; 31.4 µM in test [8]; 43.7 µM in test [9]. For the same molecule, the GI50 is > 100 µM in [2] and 19.4 µM in test [7].
Regarding `COc1cccc(NC(=O)CC(=O)n2nc(-c3ccccc3)c(N=Nc3ccc(Cl)cc3)c2-c2ccccc2)c1`, the TGI is > 100 µM in test [1]; 73.8 µM in [2]; 75.9 µM in [3]; 58.6 µM in test [4]; 99.1 µM in [5]; > 100 µM in test [6]. The TGI in test [7] was > 100 µM; in test [8], > 96.4 µM; in [9] it was > 100 µM.
For `CSc1nnc(SCc2nn3c(=O)cc(C)nc3s2)s1`, the TGI in [1], in test [2], in test [3], in test [4], in test [5] and in [6] was > 100 µM each time. In addition, the TGI in [7], in test [8] and in test [9] was > 100 µM throughout.
`CCOC(=O)C1CCC(=O)N1C(=O)c1cccc(Cl)c1` (stereo not drawn): the TGI in test [1], in test [2], in [3], in test [4], in test [5] and in test [6] was > 100 µM throughout. Besides, the TGI in test [7], in test [8] and in test [9] was > 100 µM each time.
`O=c1c2ccccc2nc(N/N=C/c2ccc([N+](=O)[O-])cc2)n1-c1ccccc1`: the TGI in [1] was > 100 µM; in test [2], > 100 µM; in test [3], 32.7 µM; in test [4], 46 µM; in [5], > 100 µM; in test [6] it was 62.9 µM. Moreover, the TGI was > 100 µM in [7], > 100 µM in test [8] and 30.1 µM in test [9].
`NC1CCCCC1NCCNC1CCCCC1N` (stereo not drawn): the TGI in [1], in test [2], in [3], in test [4], in test [5] and in test [6] was > 100 µM each time. The TGI in [7], in test [8] and in test [9] was > 100 µM in each case.
With `O=C(c1ccccc1)c1nnn(Cc2ccccc2Cn2nnc(C(=O)c3ccccc3)c2C(=O)c2ccccc2)c1C(=O)c1ccccc1`, the TGI in [11], in [2], in test [5], in [6], in test [8] and in test [10] was > 100 µM throughout. For the same molecule, the TGI in test [9] was > 100 µM.
With `CCC1=C(C[C@H]2NCCc3cc(OC)c(OC)cc32)C[C@H]2c3cc(OC)c(OC)cc3CCN2C1`, the TGI turned out to be 0.109 µM in test [11]; 0.0698 µM in test [3]; 0.158 µM in [5]; 0.28 µM in test [6]; 0.444 µM in test [8]; 0.0983 µM in test [10]. The molecule also registered a TGI in test [9] of 0.192 µM.
`Cc1cc2c(c(C(=O)NCC(=O)O)c1)Oc1c(cc(C)cc1C(=O)NCC(=O)O)S2`: the TGI in test [1], in test [2], in test [3], in test [4], in test [5] and in test [6] was > 100 µM in each case. For the same molecule, the TGI in test [7], in test [8] and in test [9] was > 100 µM throughout.
`O=C1C=CC(=O)c2c1ccc1c3ccccc3n(Cc3ccccc3)c21`: the TGI in test [1] was determined as 43.1 µM; in test [2] it was 24.7 µM; in test [3], 32.8 µM; in test [4] it was 43.9 µM; in test [5] it was 33 µM; in test [6], 35.4 µM. The TGI in [7] turned out to be 54.4 µM; in [8] it was 46.2 µM; in test [9], 54 µM.
In the case of `O=c1[nH]cc(N=Cc2cc(Cl)ccc2O)c(=O)[nH]1`, the TGI was > 100 µM in test [1]; 98 µM in test [2]; > 100 µM in test [3]; 70 µM in test [4]; > 100 µM in test [5]; 61.6 µM in test [6]. Also, the TGI is > 100 µM in [7], 52.6 µM in test [8] and 70.1 µM in [9].
